Source: ChEMBL document CHEMBL3421591, “Improved Synthesis of Biotinol-5'-AMP: Implications for Antibacterial Discovery” (ACS Med Chem Lett, 2015)
In brackets after ≈: the same amount, converted by molar mass. Activity calls are given as the source filed them. The calls are words filed in the database; no cut-off is given here.

Columns and labels:
Type in all cases: functional
[1] = system: Mycobacterium tuberculosis; assay: Antimicrobial activity against isoniazid-resistant Mycobacterium tuberculosis Who-185 after 16 to 20 hrs by two-fold microdilution broth method
[2] = system: Mycobacterium tuberculosis; assay: Antimicrobial activity against pyrazinamide-resistant Mycobacterium tuberculosis BCG(SI) after 16 to 20 hrs by two-fold microdilution broth method
[3] = system: Mycobacterium tuberculosis; assay: Antimicrobial activity against rifampicin-resistant Mycobacterium tuberculosis Who-185 after 16 to 20 hrs by two-fold microdilution broth method

Compound	MIC [1] [µg/mL]	MIC [2]	MIC [3] [µg/mL]
Nc1ncnc2c1ncn2[C@@H]1O[C@H](CNS(=O)(=O)NC(=O)CCCC[C@@H]2SC[C@@H]3NC(=O)N[C@@H]32)[C@@H](O)[C@H]1O	0.1 (≈ 0.175 µM)	0.1 µg/mL (≈ 0.175 µM)	0.1 (≈ 0.175 µM)
Nc1ncnc2c1ncn2[C@@H]1O[C@H](COP(=O)(O)OCCCCC[C@@H]2SC[C@@H]3NC(=O)N[C@@H]32)[C@@H](O)[C@H]1O	0.5 (≈ 0.894 µM)	inactive	2.5 (≈ 4.47 µM)
